# Biological target: wild-type A1AT (M) (Homo sapiens, UniProt P01009)
# Assay: not given
# Conditions: cited from earlier work
# wild-type A1AT (M), sequence (P01009 25-418): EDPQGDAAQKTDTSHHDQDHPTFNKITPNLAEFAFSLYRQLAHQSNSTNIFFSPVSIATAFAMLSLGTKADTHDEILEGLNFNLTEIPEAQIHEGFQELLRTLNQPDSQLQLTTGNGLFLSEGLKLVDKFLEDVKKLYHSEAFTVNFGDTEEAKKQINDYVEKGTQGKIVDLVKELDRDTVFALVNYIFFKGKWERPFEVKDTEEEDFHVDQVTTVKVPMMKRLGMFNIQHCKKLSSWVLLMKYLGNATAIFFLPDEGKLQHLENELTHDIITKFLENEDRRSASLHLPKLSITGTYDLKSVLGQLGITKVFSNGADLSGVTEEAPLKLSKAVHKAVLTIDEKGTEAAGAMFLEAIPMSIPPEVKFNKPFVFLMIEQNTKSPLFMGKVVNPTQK
row,SMILES,binding to wild-type A1AT (M)
1,"O=S(=O)(O)c1cccc2c(-c3ccc(Nc4ccccc4)c4c(S(=O)(=O)O)cccc34)ccc(Nc3ccccc3)c12 [bis-ANS, 4,4′-dianilino-1,1′-binaphthyl-5,5′-disulfonate]",not to wild-type A1AT (M)

# Biological target: T1, Z A1AT (Homo sapiens, UniProt P01009, E366K)
# T1 construct: expressed in transfected cells; host or cells: HEK-Z (human embryonic kidney cells stably transfected with the human Z A1AT gene)
# Assay: A1AT cell secretion assay using HEK-Z cells
# Type: cell-based
# Conditions: 300 nM, 48 h, supernatant A1AT by ELISA, read-out: Median A1AT % increase over vehicle at 300 nM
# Procedure: HEK-Z cells, a human embryonic kidney cell line stably transfected with the human Z A1AT gene, were plated into 96 well plates (3.0×10^5 cells/ml with 200 μl of media/well) overnight at 37° C. in a humidified atmosphere containing 5% CO2. Following incubation cells were washed with 200 μl serum-free media three times and media was replaced with treatments in quadruplicate using serum free media containing either vehicle, 10 μM suberanilohydroxamic acid (SAHA) or a compound of the invention (at concentrations of 10, 33, 100 and 333 nM) for 48 h in a 37° C. incubator in a final volume of 200 μl. At the end of the incubation step the supernatants were removed from the wells, centrifuged at 1000×g at 4° C. for 10 min and were assayed for human A1AT levels by ELISA (Human Serpin A1/α1-antitrypsin duo set ELISA, R& D Systems, DY1268) per manufacturer's instructions.
# Briefly, a 96 well plate was coated with human A1AT capture antibody overnight at room temperature (1:180 dilution from stock, 100 μl final volume/well). The capture antibody was then removed and wells washed three times with 300 μl wash buffer (0.05% Tween 20 in PBS) and then 200 μl reagent diluent ([…]) was incubated in each well for 1 h at room temperature. Diluted samples, standards (125, 250, 500, 1000, 2000, 4000 and 8000 pg/ml A1AT) or blanks were then added to each well in duplicate and the plates were covered with a plate sealer and left at room temperature for 2 h. At the end of the sample incubation step, samples were removed and all wells washed as previously and 100 μl detection antibody (1:180 dilution from stock) was added to each well and incubated for a further 2 h at room temperature. Following incubation with detection antibody, supernatant was removed and wells were washed as previously and 100 μl streptavidin-HRP solution (1:200 dilution from stock) was added to each well for 20 min in the dark. After which, 50 μl stop solution (2M H2SO4) was added and optical density (OD) of each well was read at 450 nm with 570 nm blank subtracted from each well using a microplate reader. A 4-parameter logistic curve was constructed using GraphPad Prism 7 and A1AT concentrations were determined in each sample by interpolation from a standard curve and multiplying by the appropriate dilution factor.
# T1 sequence (P01009 25-418 E366K): as the sequence (P01009 25-418) above, with E342K counted along it
row,SMILES,activation at 0.3 µM [%]
1,"CCN(C)C(=O)c1ccc(Cn2c(=O)cc[nH]c2=O)cc1 [Example 6, 4-((2,6-dioxo-3,6-dihydropyrimidin-1(2H)-yl)methyl)-N-ethyl-N-methylbenzamide]",190
2,"CN(CC(F)(F)F)C(=O)c1ccc(Cn2c(=O)cc[nH]c2=O)cc1 [Example 9, 4-((2,6-dioxo-3,6-dihydropyrimidin-1(2H)-yl)methyl)-N-methyl-N-(2,2,2-trifluoroethyl)benzamide]",180
3,"CN(C)C(=O)c1ccc(Cn2ccc(=O)[nH]c2=O)cc1 [Example 1, 4-((2,4-dioxo-3,4-dihydropyrimidin-1(2H)-yl)methyl)-N,N-dimethylbenzamide]",130
4,"CNC(=O)c1ccc(Cn2ccc(=O)[nH]c2=O)cc1 [Example 2, 4-((2,4-dioxo-3,4-dihydropyrimidin-1(2H)-yl)methyl)-N-methylbenzamide]",175
5,"CC(C)N(C)C(=O)c1ccc(Cn2c(=O)cc[nH]c2=O)cc1 [Example 7, 4-((2,6-dioxo-3,6-dihydropyrimidin-1(2H)-yl)methyl)-N-isopropyl-N-methylbenzamide]",170
6,"CC(C)NC(=O)c1ccc(Cn2ccc(=O)[nH]c2=O)cc1 [Example 3, 4-((2,4-dioxo-3,4-dihydropyrimidin-1(2H)-yl)methyl)-N-isopropylbenzamide]",190
7,"CN(C)C(=O)c1ccc(Cn2c(=O)cc[nH]c2=O)cc1 [Example 5, 4-((2,6-dioxo-3,6-dihydropyrimidin-1(2H)-yl)methyl)-N,N-dimethylbenzamide]",140
8,"O=C(NCc1ccc(F)cc1)c1ccc(Cn2ccc(=O)[nH]c2=O)cc1 [Example 4, 4-((2,4-dioxo-3,4-dihydropyrimidin-1(2H)-yl)methyl)-N-(4-fluorobenzyl)benzamide]",170
9,"CN(Cc1ccccc1)C(=O)c1ccc(Cn2c(=O)cc[nH]c2=O)cc1 [Example 8, N-benzyl-4-((2,6-dioxo-3,6-dihydropyrimidin-1(2H)-yl)methyl)-N-methylbenzamide]",175
